From patent publication US11266655B2, “Methods and compositions for treating urea cycle disorders” (Camp4 Therapeutics Corporation, priority 2019, dated 2022)
Where “and” joins values, the source holds several entries; their conditions need not be identical. Equal entries are not always repeated.

Tests used:
OTC [1] = assay: OTC expression modulated by compounds, OTC/GeoMean of housekeeping genes, DMSO = 1 (Table 3A); type: cell-based, human; details: 10 uM final concentration
CPS1 = assay: HSP90 or HSP70 inhibitors in primary human hepatocytes, CPS1 mRNA; type: cell-based; details: hepatocytes from Donor B, normalized to B2M
Protocol: (§1) Additional small molecules that inhibit HSP90 or HSP70 were tested in primary human hepatocytes as described in Example 2. HSP90 or HSP70 inhibitors were tested in triplicate at 0.3 μM and 3 μM. The results are shown as the fold change (mRNA FC) in the mRNA levels of OTC and CPS1 genes after treatment compared to an untreated control (DMSO) and the standard deviation (SD). In addition, a dose titration experiment was performed with selected HSP90 inhibitors. Hepatocytes were incubated with increasing concentrations of HSP90 inhibitors and the changes in OTC and CPS1 expression quantified as previously described.
(§2) HSP90 and HSP70 inhibitors were compared to confirm the role of HSP90 in modulating OTC and CPS1 expression. Hepatocytes from Donor B were incubated with various HSP90 inhibitors or an HSP70 inhibitor, Pifithrin-μ, and then harvested for mRNA quantification. OTC and CPS1 mRNA levels were normalized to B2M.

OTC [2] = assay: HSP90 or HSP70 inhibitors in primary human hepatocytes, OTC mRNA; type: cell-based; details: hepatocytes from Donor B, normalized to B2M
Protocol: as §1, §2

SLC25A15 = assay: RNA-seq of compound-treated primary human hepatocytes, SLC25A15 expression; type: cell-based; details: primary human hepatocytes, triplicate (Table 24, FIG. 16A-B)
SLC25A13 = assay: RNA-seq of compound-treated primary human hepatocytes, SLC25A13 expression; type: cell-based; details: primary human hepatocytes, triplicate (Table 23, FIG. 15)
ASS1 = assay: RNA-seq of compound-treated primary human hepatocytes, ASS1 expression; type: cell-based; details: primary human hepatocytes, triplicate (Table 15, FIG. 7)
ARG1 = assay: RNA-seq of compound-treated primary human hepatocytes, ARG1 expression; type: cell-based; details: 10 μM, primary human hepatocytes, triplicate (Table 17, FIG. 9)
NAGS = type: cell-based, human; details: 1 μM, primary human hepatocytes, triplicate (Table 21, FIG. 13)

Compound	Max Value (OTC/GeoMean of HKs; DMSO = 1) (OTC [1])	CPS1 Expression mRNA FC (CPS1; 0.3 uM)	CPS1 Expression mRNA FC (CPS1; 3 uM)	OTC Expression mRNA FC (OTC [2]; 0.3 uM)	OTC Expression mRNA FC (OTC [2]; 3 uM)	Relative SLC25A15 level vs Untreated (±Standard Deviation) (SLC25A15; 10 μM)	further results
O=C(NCCCNc1nc(Nc2cccc(CN3CCOCC3)c2)ncc1C1CC1)C1CCC1 [MRT67307]	1.68						
CO[C@H]1/C=C\C=C(/C)C(=O)NC2=CC(=O)C(NCCN(C)C)=C(C[C@@H](C)C[C@H](OC)[C@H](O)[C@@H](C)/C=C(\C)[C@@H]1OC(N)=O)C2=O [Alvespimycin]		2.33	1.94	3.03	1.57		
CC1(C)CC[C@]2(C(=O)O)CC[C@]3(C)[C@H](C(=O)C=C4[C@@]5(C)C=C(C#N)C(=O)C(C)(C)[C@@H]5CC[C@]43C)[C@@H]2C1 [Bardoxolone]	2.76						
C=CCNC1=C2C[C@@H](C)C[C@H](OC)[C@H](O)[C@@H](C)/C=C(\C)[C@H](OC(N)=O)[C@@H](OC)/C=C\C=C(/C)C(=O)NC(=CC1=O)C2=O [17-AAG (Tanespimycin), Tanespimycin]		1.79	2.51	5.01	2.84	1.46 ± 0.14	Relative SLC25A15 level vs Untreated (±Standard Deviation) (SLC25A15; 0.3 μM): 1.48 ± 0.01; Relative SLC25A15 level vs Untreated (±Standard Deviation) (SLC25A15; 1 μM): 1.40 ± 0.05; Relative SLC25A15 level vs Untreated (±Standard Deviation) (SLC25A15; 3 μM): 1.51 ± 0.09; Relative SLC25A13 level vs Untreated (±Standard Deviation) (SLC25A13; 0.3 μM): 1.48 ± 0.01; Relative SLC25A13 level vs Untreated (±Standard Deviation) (SLC25A13; 1 μM): 1.40 ± 0.05; Relative SLC25A13 level vs Untreated (±Standard Deviation) (SLC25A13; 3 μM): 1.51 ± 0.09; Relative SLC25A13 level vs Untreated (±Standard Deviation) (SLC25A13; 10 μM): 1.46 ± 0.14; Relative ASS1 level vs Untreated (±Standard Deviation) (ASS1; 0.3 μM): 1.37 ± 0.11; Relative ASS1 level vs Untreated (±Standard Deviation) (ASS1; 1 μM): 1.46 ± 0.07
Cl.Cn1c(=O)c(Oc2ccc(F)cc2F)cc2cnc(NC3CCOCC3)nc21 [R1487 Hydrochloride]	1.64					1.51 ± 0.09	Relative SLC25A15 level vs Untreated (±Standard Deviation) (SLC25A15; 1 μM): 1.56 ± 0.16
CC1(C)CC(=O)c2c(C(F)(F)F)nn(-c3ccc(C(N)=O)c(N[C@H]4CC[C@H](OC(=O)CN)CC4)c3)c2C1 [PF-04929113 (SNX-5422)]	1.73						
CNC(=O)c1ccc(C)c(-n2c(C)cc(OCc3ccc(F)cc3F)c(Br)c2=O)c1 [PH-797804]	1.53						
N#CC(C#N)=NNc1cccc(Cl)c1 [CCCP]	4.06						
CCNC(=O)c1noc(-c2cc(C(C)C)c(O)cc2O)c1-c1ccc(CN2CCOCC2)cc1 [Luminespib]		0.86	1.39	0.81	3.07	1.55 ± 0.02 and 1.82 ± 0.08	Relative ARGI level vs Untreated (±Standard Deviation) (ARG1): 1.34 ± 0.07; Relative NAGS level vs Untreated (±Standard Deviation) (NAGS): 1.32 ± 0.30; Relative SLC25A15 level vs Untreated (±Standard Deviation) (SLC25A15; 3 μM): 1.32 ± 0.24; Relative SLC25A13 level vs Untreated (±Standard Deviation) (SLC25A13; 10 μM): 1.55 ± 0.02
